Assay [1] addresses T1, WRN [UniPro: Q14191 (WRN_HUMAN), N500-C946] (Homo sapiens (Human), UniProt Q14191). Description: WRN unwinding assay (FORKF DNA, fluorescence). The assay is classed as biochemical. Conditions: Table 14.
The target of assay [2] is T1, WRN [UniPro: Q14191 (WRN_HUMAN), N500-C946]. Description: WRN ATPase assay (ADP-Glo). It counts as biochemical. Particulars: WRN enzymatic activity assay. A general note: ADP-Glo first removes unused ATP, then detects ADP through luciferase.

T1 sequence (Q14191 500-946): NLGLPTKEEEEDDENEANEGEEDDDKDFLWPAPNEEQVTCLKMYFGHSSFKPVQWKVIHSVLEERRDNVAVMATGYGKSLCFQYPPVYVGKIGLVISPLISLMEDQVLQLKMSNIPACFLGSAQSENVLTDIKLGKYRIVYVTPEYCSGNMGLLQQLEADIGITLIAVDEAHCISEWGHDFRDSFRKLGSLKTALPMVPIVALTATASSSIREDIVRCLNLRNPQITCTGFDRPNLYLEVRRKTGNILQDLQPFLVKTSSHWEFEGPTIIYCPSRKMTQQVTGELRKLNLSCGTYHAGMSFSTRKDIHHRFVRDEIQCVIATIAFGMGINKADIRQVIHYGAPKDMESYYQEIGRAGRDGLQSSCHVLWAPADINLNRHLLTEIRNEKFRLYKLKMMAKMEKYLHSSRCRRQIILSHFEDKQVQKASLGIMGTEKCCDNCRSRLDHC

Turning to `CCc1c(N2CCN(C(=O)CNC(=O)c3ccc(F)s3)CC2)c(=O)n2nc(C3=CCOCC3)nc2n1CC(=O)Nc1ccc(C(F)(F)F)cc1Cl` [Example 375, N-(2-(4-(4-(2-((2-Chloro-4-(trifluoromethyl)phenyl)amino)-2-oxoethyl)-2-(3,6-dihydro-2H-pyran-4-yl)-5-ethyl-7-oxo-4,7-dihydro-[1,2,4]triazolo[1,5-a]pyrimidin-6-yl)piperazin-1-yl)-2-oxoethyl)-5-fluorothiophene-2-carboxamide], the IC50 in assay [1] and in assay [2] was less than 100 nM throughout.
`CCc1c(N2CCN(C(=O)CNC(=O)c3cc(NC)ccc3F)CC2)c(=O)n2nc(N3CCOCC3)nc2n1CC(=O)Nc1ccc(C(F)(F)F)cc1Cl` [Example 250]: the IC50 in assay [1] and in assay [2] was less than 100 nM each time.
For `CCc1c(N2CCN(C(=O)CNC(=O)c3ccccc3)CC2)c(=O)n2nc(N3CC4(COC4)C3)nc2n1CC(=O)Nc1ccc(C(F)(F)F)cc1Cl` [Example 235, N-(2-(4-(4-(2-((2-Chloro-4-(trifluoromethyl)phenyl)amino)-2-oxoethyl)-5-ethyl-7-oxo-2-(2-oxa-6-azaspiro[3.3]heptan-6-yl)-4,7-dihydro-[1,2,4]triazolo[1,5-a]pyrimidin-6-yl)piperazin-1-yl)-2-oxoethyl)benzamide], the IC50 in assay [1] and in assay [2] was 100 to 1000 nM each time.
As for `CCc1c(N2CCN(C(=O)c3ncn4cccc4c3O)CC2)c(=O)n2nc(C3=CCOCC3)nc2n1CC(=O)Nc1ccc(C(F)(F)F)cc1Cl` [Example 202, N-(2-Chloro-4-(trifluoromethyl)phenyl)-2-(2-(3,6-dihydro-2H-pyran-4-yl)-5-ethyl-6-(4-(4-hydroxypyrrolo[1,2-c]pyrimidine-3-carbonyl)piperazin-1-yl)-7-oxo-[1,2,4]triazolo[1,5-a]pyrimidin-4(7H)-yl)acetamide], the IC50 in assay [1] and in assay [2] was 100 to 1000 nM throughout.
Consider `CCc1c(N2CCN(C(=O)c3cnn4cccc4c3O)CC2)c(=O)n2nc(C3=CCOCC3)nc2n1CC(=O)Nc1ccc(C(F)(F)F)cc1F` [Example 318, 2-(2-(3,6-Dihydro-2H-pyran-4-yl)-5-ethyl-6-(4-(4-hydroxypyrrolo[1,2-b]pyridazine-3-carbonyl)piperazin-1-yl)-7-oxo-[1,2,4]triazolo[1,5-a]pyrimidin-4(7H)-yl)-N-(2-fluoro-4-(trifluoromethyl)phenyl)acetamide], for which the 50% inhibitory concentration (IC50) in assay [1] and in assay [2] was less than 100 nM each time.
In the case of `CCc1c(N2CCN(C(=O)c3[nH]c4ccncc4c3F)CC2)c(=O)n2nc(C3=CCOCC3)nc2n1CC(=O)Nc1ccc(C(F)(F)F)cc1Cl` [Example 300, N-(2-Chloro-4-(trifluoromethyl)phenyl)-2-(2-(3,6-dihydro-2H-pyran-4-yl)-5-ethyl-6-(4-(3-fluoro-1H-pyrrolo[3,2-c]pyridine-2-carbonyl)piperazin-1-yl)-7-oxo-[1,2,4]triazolo[1,5-a]pyrimidin-4(7H)-yl)acetamide], the 50% inhibitory concentration (IC50) in assay [1] and in assay [2] was 100 to 1000 nM throughout.
Regarding `CCc1c(N2CCN(C(=O)Nc3[nH]cnc3C(F)(F)F)CC2)c(=O)n2nc(C3=CCOCC3)nc2n1CC(=O)Nc1ccc(C(F)(F)F)cc1Cl` [Example 30, 4-(4-(2-((2-Chloro-4-(trifluoromethyl)phenyl)amino)-2-oxoethyl)-2-(3,6-dihydro-2H-pyran-4-yl)-5-ethyl-7-oxo-4,7-dihydro-[1,2,4]triazolo[1,5-a]pyrimidin-6-yl)-N-(4-(trifluoromethyl)-1H-imidazol-5-yl)piperazine-1-carboxamide], the IC50 in assay [1] was less than 100 nM; in assay [2], 100 to 1000 nM.
Regarding `CCc1c(N2CCN(C(=O)CNC(=O)c3ncccc3O)CC2)c(=O)n2nc(C3=CCOCC3)nc2n1CC(=O)Nc1ccc(C(F)(F)F)cc1Cl` [Example 271, N-(2-(4-(4-(2-((2-Chloro-4-(trifluoromethyl)phenyl)amino)-2-oxoethyl)-2-(3,6-dihydro-2H-pyran-4-yl)-5-ethyl-7-oxo-4,7-dihydro-[1,2,4]triazolo[1,5-a]pyrimidin-6-yl)piperazin-1-yl)-2-oxoethyl)-3-hydroxypicolinamide], the IC50 in assay [1] was less than 100 nM; in assay [2], 100 to 1000 nM.
For `CCc1c(N2CCN(C(=O)CNC(=O)CC3CC3)CC2)c(=O)n2nc(C3=CCOCC3)nc2n1CC(=O)Nc1ccc(C(F)(F)F)cc1Cl` [Example 275, N-(2-Chloro-4-(trifluoromethyl)phenyl)-2-(6-(4-((2-cyclopropylacetyl)glycyl)piperazin-1-yl)-2-(3,6-dihydro-2H-pyran-4-yl)-5-ethyl-7-oxo-[1,2,4]triazolo[1,5-a]pyrimidin-4(7H)-yl)acetamide], the 50% inhibitory concentration (IC50) in assay [1] and in assay [2] was less than 100 nM each time.
Turning to `CCc1c(N2CCN(C(=O)c3nnc(C)[nH]c3=O)CC2)c(=O)n2nc(C3=CCOCC3)nc2n1CC(=O)Nc1ccc(C(F)(F)F)cc1Cl` [Example 56, N-(2-Chloro-4-(trifluoromethyl)phenyl)-2-(2-(3,6-dihydro-2H-pyran-4-yl)-5-ethyl-6-(4-(3-methyl-5-oxo-4,5-dihydro-1,2,4-triazine-6-carbonyl)piperazin-1-yl)-7-oxo-[1,2,4]triazolo[1,5-a]pyrimidin-4(7H)-yl)acetamide], the half-maximal inhibitory concentration (IC50) in assay [1] and in assay [2] was less than 100 nM each time.
Consider `CCc1c(N2CCN(C(=O)CNC(=O)c3cn(C)[nH]c3=O)CC2)c(=O)n2nc(C3=CCOCC3)nc2n1CC(=O)Nc1ccc(C(F)(F)F)cc1Cl` [Example 283, N-(2-(4-(4-(2-((2-Chloro-4-(trifluoromethyl)phenyl)amino)-2-oxoethyl)-2-(3,6-dihydro-2H-pyran-4-yl)-5-ethyl-7-oxo-4,7-dihydro-[1,2,4]triazolo[1,5-a]pyrimidin-6-yl)piperazin-1-yl)-2-oxoethyl)-1-methyl-3-oxo-2,3-dihydro-1H-pyrazole-4-carboxamide], for which the IC50 in assay [1] was less than 100 nM; in assay [2], 100 to 1000 nM.
On the same counts, the results for `CCc1c(N2CCN(C(=O)c3nc(C(F)(F)F)c[nH]3)CC2)c(=O)n2nc(C3=CCOCC3)nc2n1CC(=O)Nc1ccc(C(F)(F)F)cc1Cl` [Example 1, N-(2-Chloro-4-(trifluoromethyl)phenyl)-2-(2-(3,6-dihydro-2H-pyran-4-yl)-5-ethyl-7-oxo-6-(4-(4-(trifluoromethyl)-1H-imidazole-2-carbonyl)piperazin-1-yl)-[1,2,4]triazolo[1,5-a]pyrimidin-4(7H)-yl)acetamide] are 100 to 1000 nM and 100 to 1000 nM.
On to `CCc1c(N2CCN(C(=O)CNC(=O)c3cc(O)cc(F)c3)CC2)c(=O)n2nc(C3=CCOCC3)nc2n1CC(=O)Nc1ccc(C(F)(F)F)cc1Cl` [Example 291, N-(2-(4-(4-(2-((2-Chloro-4-(trifluoromethyl)phenyl)amino)-2-oxoethyl)-2-(3,6-dihydro-2H-pyran-4-yl)-5-ethyl-7-oxo-4,7-dihydro-[1,2,4]triazolo[1,5-a]pyrimidin-6-yl)piperazin-1-yl)-2-oxoethyl)-3-fluoro-5-hydroxybenzamide], for which the concentration for half-maximal inhibition (IC50) in assay [1] and in assay [2] was less than 100 nM throughout.
With `CCc1c(N2CCN(C(=O)C(=O)NCC(F)(F)F)CC2)c(=O)n2nc(C3=CCOCC3)nc2n1CC(=O)Nc1ccc(C(F)(F)F)cc1Cl` [Example 360, 2-(4-(4-(2-((2-Chloro-4-(trifluoromethyl)phenyl)amino)-2-oxoethyl)-2-(3,6-dihydro-2H-pyran-4-yl)-5-ethyl-7-oxo-4,7-dihydro-[1,2,4]triazolo[1,5-a]pyrimidin-6-yl)piperazin-1-yl)-2-oxo-N-(2,2,2-trifluoroethyl)acetamide], the IC50 in assay [1] and in assay [2] was more than 1000 nM throughout.
In the case of `CCOC(=O)c1cnc2oc(C(=O)N3CCN(c4c(CC)n(CC(=O)Nc5ccc(C(F)(F)F)cc5Cl)c5nc(C6=CCOCC6)nn5c4=O)CC3)cc2c1O` [Example 53, Ethyl 2-(4-(4-(2-((2-chloro-4-(trifluoromethyl)phenyl)amino)-2-oxoethyl)-2-(3,6-dihydro-2H-pyran-4-yl)-5-ethyl-7-oxo-4,7-dihydro-[1,2,4]triazolo[1,5-a]pyrimidin-6-yl)piperazine-1-carbonyl)-4-hydroxyfuro[2,3-b]pyridine-5-carboxylate], the IC50 in assay [1] is 100 to 1000 nM; in assay [2], less than 100 nM.
As to `CCc1c(N2CCN(C(=O)CNC(=O)c3cc(C)ns3)CC2)c(=O)n2nc(C3=CCOCC3)nc2n1CC(=O)Nc1ccc(C(F)(F)F)cc1Cl` [Example 122, N-(2-(4-(4-(2-((2-Chloro-4-(trifluoromethyl)phenyl)amino)-2-oxoethyl)-2-(3,6-dihydro-2H-pyran-4-yl)-5-ethyl-7-oxo-4,7-dihydro-[1,2,4]triazolo[1,5-a]pyrimidin-6-yl)piperazin-1-yl)-2-oxoethyl)-3-methylisothiazole-5-carboxamide], the half-maximal inhibitory concentration (IC50) in assay [1] and in assay [2] was less than 100 nM each time.
On to `CCc1c(N2CCN(C(=O)CNC(=O)c3ccccc3OC)CC2)c(=O)n2nc(C3=CCOCC3)nc2n1CC(=O)Nc1ccc(C(F)(F)F)cc1Cl` [Example 112, N-(2-(4-(4-(2-((2-Chloro-4-(trifluoromethyl)phenyl)amino)-2-oxoethyl)-2-(3,6-dihydro-2H-pyran-4-yl)-5-ethyl-7-oxo-4,7-dihydro-[1,2,4]triazolo[1,5-a]pyrimidin-6-yl)piperazin-1-yl)-2-oxoethyl)-2-methoxybenzamide], for which the IC50 in assay [1] and in assay [2] was less than 100 nM each time.
On to `CCc1c(N2CCN(C(=O)CNC(=O)c3ccccc3F)CC2)c(=O)n2nc(C3=CCOCC3)nc2n1CC(=O)Nc1cnc(C(F)(F)F)s1` [Example 157, N-(2-(4-(2-(3,6-Dihydro-2H-pyran-4-yl)-5-ethyl-7-oxo-4-(2-oxo-2-((2-(trifluoromethyl)thiazol-5-yl)amino)ethyl)-4,7-dihydro-[1,2,4]triazolo[1,5-a]pyrimidin-6-yl)piperazin-1-yl)-2-oxoethyl)-2-fluorobenzamide], for which the IC50 in assay [1] and in assay [2] was less than 100 nM throughout.

By IC50 is commonly meant the concentration at which inhibition is half-maximal. High values mean weaker potency, low ones greater potency.

The values above are taken from US20260015358A1, “BICYCLIC DERIVATIVES, COMPOSITIONS AND USES THEREOF” (Danatlas Pharmaceuticals Co., Ltd., priority 2023, published 2026).
